From US11846640B2, “Identification of anticoagulants in a sample” (DSM IP Assets B.V., priority 2013, dated 2023)

Columns and labels:
Format in all cases: biochemical, human
plasma samples [1] = assay: aPTT (HemosIL aPTT SP) clotting time; details: for Clotting time with aPTT: Table 6, spiked plasma, mean
Protocol: In order to address the above question, i.e. to determine the nature of an anticoagulant in a sample, a combination of several methods has to be performed, including PiCT® Method 1, PiCT® Method 4, aPTT (HemosIL™ aPTT SP), PT (HemosIL™ PT recombiplastin), and sometimes even a modified PiCT® Method 1 wherein polybrene has been added. In order to simulate this, plasma samples spiked with different levels of anticoagulants were analyzed using the ACL TOP® 500 analyzer. For each drug, a specific pattern was obtained, i.e. clotting times within the RR and clotting times above the RR, depending on the used testing method, which is unique at least for the class of anticoagulant or even for a specific anticoagulant.

plasma samples [2] = assay: PT (HemosIL PT recombiplastin) clotting time; details: for Clotting time with PT: Table 6, spiked plasma, mean
Protocol: In order to address the above question, i.e. to determine the nature of an anticoagulant in a sample, a combination of several methods has to be performed, including PiCT® Method 1, PiCT® Method 4, aPTT (HemosIL™ aPTT SP), PT (HemosIL™ PT recombiplastin), and sometimes even a modified PiCT® Method 1 wherein polybrene has been added. In order to simulate this, plasma samples spiked with different levels of anticoagulants were analyzed using the ACL TOP® 500 analyzer.

normal plasma pool (NPP) = assay: PiCT Method 4 (inverted PiCT) clotting time on ACL TOP 500; details: for Clotting time: Table 10A, PiCT Method 4, NPP spiked, mean n = 4; for PiCT ® method 4 clotting time: Table 11
Protocol: The present invention is in one aspect directed to the use of a clotting assay, in particular the PiCT® testing method on a detection system such as e.g. the ACL TOP® 500 analyzer and to a method to quantitatively and qualitatively detect anticoagulants in a sample, e.g. blood or plasma. […] PiCT® Method 4 or PiCT® inverted includes that first the start reagent is added to the sample, the mixture allowed to proceed according to the manufacturer's instructions followed by addition of the activator, i.e. a reversed order compared to standard PiCT® (see above). PiCT® Method 1 to 4 is described in more detail in the Examples.
The 4 methods (see above) are in more detail described in the Examples. Specific pipetting schemes were designed using NPP spiked with incremental amounts of anticoagulants in order to achieve high reproducibility of the test system, which is required for drug identification including use in a POC system. With regards to the ACL TOP® 500 analyzer, PiCT® Method 1 to 4 has been established as follows: • PiCT® Method 1: 50 μl of plasma is incubated for 180 sec with 50 μl of reagent 1 and afterwards 50 μl of reagent 2 is added and the time to clot is recorded on the ACL TOP® 500 (i.e. pipetting scheme: P-50/A-50/I-180/50-S).
After calculation of the RR for the different kind of anticoagulants (see Example 1) samples of NPP spiked with incremental amounts of anticoagulants were used in the ACL TOP® 500, wherein 45 μl start reagent was incubated with 140 μl plasma for 60 sec. The time to clot was recorded after addition of 40 μl of activator (i.e. so-called inverted PiCT®).

[3] = only at higher doses, in the range of 200 ng or more

**Q.** Which “Clotting time with aPTT” value (plasma samples [1]; 50 ng) does the source give for `O=C(NC[C@H]1CN(c2ccc(N3CCOCC3=O)cc2)C(=O)O1)c1ccc(Cl)s1` [rivaroxaban] here?
**A.** 34.5 s

**Q.** What about the “Clotting time with aPTT” value (plasma samples [1]; 200 ng) of the same molecule?
**A.** 49.6 s

**Q.** And the “aPTT clotting time relative to reference range (RR)” value (plasma samples [1]; [3])?
**A.** above the RR

**Q.** What about the “Clotting time with PT” value (plasma samples [2]; 50 ng) of the same molecule?
**A.** 12.2 s

**Q.** What about the “Clotting time with PT” value (plasma samples [2]; 200 ng) of the same molecule?
**A.** 20.3 s

**Q.** What about the “PT clotting time relative to reference range (RR)” value (plasma samples [2]; [3]) of the same molecule?
**A.** above the RR

**Q.** And the “Clotting time with PiCT ® Method 4” value (normal plasma pool (NPP); Table 4, NPP spiked with 20 ng per ml)?
**A.** 70 s

**Q.** And the “Clotting time with PiCT ® Method 4” value (normal plasma pool (NPP); Table 4, NPP spiked with 35 ng per ml)?
**A.** 80 s

**Q.** And the “Clotting time with PiCT ® Method 4” value (normal plasma pool (NPP); Table 5, spiked plasma, 20 ng per ml)?
**A.** 70 s

**Q.** What about the “Clotting time with PiCT ® Method 4” value (normal plasma pool (NPP); Table 5, spiked plasma, 35 ng per ml) of the same molecule?
**A.** 80 s

**Q.** What about the “Clotting time with PiCT ® Method 4” value (normal plasma pool (NPP); Table 5, spiked plasma, 300 ng per ml) of the same molecule?
**A.** 162.1 s

**Q.** What about the “Clotting time with PiCT ® Method 4” value (normal plasma pool (NPP); Table 6, spiked plasma, 50 ng, mean) of the same molecule?
**A.** 83.6 s

**Q.** And the “Clotting time with PiCT ® Method 4” value (normal plasma pool (NPP); Table 6, spiked plasma, 200 ng, mean)?
**A.** 132.8 s

**Q.** And the Clotting time (normal plasma pool (NPP); 5 ng/ml)?
**A.** 71 s

**Q.** What about the Clotting time (normal plasma pool (NPP); 10 ng/ml) of the same molecule?
**A.** 83 s

**Q.** What about the Clotting time (normal plasma pool (NPP); 50 ng/ml) of the same molecule?
**A.** 118 s

**Q.** And the Clotting time (normal plasma pool (NPP); 100 ng/ml)?
**A.** 149 s

**Q.** What about the Clotting time (normal plasma pool (NPP); 200 ng/ml) of the same molecule?
**A.** 191 s

**Q.** And the Clotting time (normal plasma pool (NPP); 300 ng/ml)?
**A.** 220 s

**Q.** And the Clotting time (normal plasma pool (NPP); 400 ng/ml)?
**A.** 248 s

**Q.** What about the Clotting time (normal plasma pool (NPP); 500 ng/ml) of the same molecule?
**A.** 270 s

**Q.** And the Clotting time (normal plasma pool (NPP); 600 ng/ml)?
**A.** 278 s

**Q.** What about the “PiCT ® method 4 clotting time” value (normal plasma pool (NPP); spiked plasma, 20 ng/mL (wash off level)) of the same molecule?
**A.** 70 sec (n = 3)

**Q.** And the “PiCT ® method 4 clotting time” value (normal plasma pool (NPP); spiked plasma, 35 ng/mL (wash off level))?
**A.** 80 sec (n = 3)

**Q.** Which “Clotting time with aPTT” value (plasma samples [1]; 0.3 μg) does the source give for `CC1CNc2c(cccc2S(=O)(=O)N[C@@H](CCCNC(=N)N)C(=O)N2CC[C@@H](C)C[C@@H]2C(=O)O)C1` (stereo partly shown) [argatroban] here?
**A.** 61.7 s

**Q.** What about the “Clotting time with aPTT” value (plasma samples [1]; 1.5 μg) of the same molecule?
**A.** 106.2 s

**Q.** And the “Clotting time with PT” value (plasma samples [2]; 0.3 μg)?
**A.** 15.0 s

**Q.** What about the “Clotting time with PT” value (plasma samples [2]; 1.5 μg) of the same molecule?
**A.** 31.2 s

**Q.** And the “Clotting time with PiCT ® Method 4” value (normal plasma pool (NPP); Table 4, NPP spiked with 0.3 μg per ml)?
**A.** 147 s

**Q.** And the “Clotting time with PiCT ® Method 4” value (normal plasma pool (NPP); Table 6, spiked plasma, 0.3 μg, mean)?
**A.** 147.4 s

**Q.** And the “Clotting time with PiCT ® Method 4” value (normal plasma pool (NPP); Table 6, spiked plasma, 1.5 μg, mean)?
**A.** 300.0 s
